Data taken from patent US9695132B2, “Heteroaryl compounds and uses thereof” (Celgene CAR LLC, priority 2013, dated 2017).
Where two headings read alike, the source gives them in different places.

How the values were obtained:
FGFR4-WT = FGFR4-WT (Homo sapiens (Human), UniProt P22455); experiment: Omnia assay for potency assessment against FGFR4 enzyme; assay type: biochemical
Procedure: A 10× stock solution of FGFR4-WT (PR4380C), (from Invitrogen, Carlsbad, Calif.) corresponding to method a in Table 7, was prepared as described below. Alternatively, a 10× stock solution of FGFR4-WT (F01-11G), (SignalChem, Richmond, BC) corresponding to method b in Table 7, was prepared as described below. A solution of 1.4×ATP (AS001A) and 5× Tyr-Sox conjugated peptide substrate (KNZ3101) were prepared in 1× kinase reaction buffer consisting of 20 mM Tris, pH 7.5, 5 mM MgCl2, 1 mM EGTA, 5 mM β-glycerophosphate, 5% glycerol (10× stock, KB002A) and 0.2 mM DTT (DS001A). […] The serially diluted compounds were prepared on a Tecan EVO100. A second addition of 10 μl of Tyr-Sox FGFR4 substrate was added to each well and the kinase reactions were started with the addition of 35 μL of 1.4×ATP. The reactions were monitored every 71 seconds for 240 minutes at λex360/λem485 in a Synergy plate reader from BioTek (Winooski, Vt.).

pFGFR4 in Huh7 cells = pFGFR4 in Huh7 cells (Homo sapiens (Human), UniProt P22455); experiment: FGFR4 signaling, Meso Scale assay (MSD), Method B, Huh7
Sequence of pFGFR4 in Huh7 cells (P22455 22-802): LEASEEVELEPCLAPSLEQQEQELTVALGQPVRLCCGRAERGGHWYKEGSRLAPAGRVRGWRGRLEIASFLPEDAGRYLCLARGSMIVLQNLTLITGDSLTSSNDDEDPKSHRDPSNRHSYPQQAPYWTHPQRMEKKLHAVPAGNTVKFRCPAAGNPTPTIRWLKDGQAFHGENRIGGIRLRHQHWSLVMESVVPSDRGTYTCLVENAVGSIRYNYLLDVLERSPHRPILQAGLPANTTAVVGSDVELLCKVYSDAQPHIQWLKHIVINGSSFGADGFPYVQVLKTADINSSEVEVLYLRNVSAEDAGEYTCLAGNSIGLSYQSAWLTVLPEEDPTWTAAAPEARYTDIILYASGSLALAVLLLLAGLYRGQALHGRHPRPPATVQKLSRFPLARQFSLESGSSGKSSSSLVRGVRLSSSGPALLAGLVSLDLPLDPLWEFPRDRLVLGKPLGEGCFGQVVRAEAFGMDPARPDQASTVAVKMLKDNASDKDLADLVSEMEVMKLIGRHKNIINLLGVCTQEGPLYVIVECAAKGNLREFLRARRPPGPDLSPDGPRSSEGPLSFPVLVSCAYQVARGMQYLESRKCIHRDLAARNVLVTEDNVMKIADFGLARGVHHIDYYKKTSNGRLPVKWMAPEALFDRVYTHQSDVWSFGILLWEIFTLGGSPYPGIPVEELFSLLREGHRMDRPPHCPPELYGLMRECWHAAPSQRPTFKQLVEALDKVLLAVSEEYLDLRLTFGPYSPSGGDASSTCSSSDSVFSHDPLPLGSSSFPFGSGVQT
Procedure: Huh7 cells were grown in DMEM (Invitrogen, Carlsbad, Calif.) supplemented with 10% FBS (Invitrogen) and 1% Penicillin-Streptomycin (P/S, Lonza, Walkersville, Md.).
For the MSD and ELISA assays, total FGFR4 antibodies were obtained from R&D Systems (Minneapolis, Minn.) and used at 1:500. […] Phospho-FGFR antibodies were obtained from Cell Signaling (Danvers, Mass.) or R&D Systems and used at 1:1000. The phopho-FGFR antibody from Cell Signaling was used for immunoblotting, whereas the phopho-FGFR antibody from R&D was used for MSD and ELISA assays. Secondary antibodies were used at 1:10,000. The goat anti-mouse IgG IRDye 800CW antibody was obtained from LiCor Biosciences (Lincoln, Nebr.) and the goat anti-rabbit IgG Alexa Fluor 680 was obtained from Invitrogen. The anti-rabbit Sulfo-tag and anti-streptavidin Sulfo-tag antibodies was obtained from Meso Scale Discovery (Gaithersburg, Md.), and were used at 1:1000 and 1:5000, respectively.
After treatment, the cells were washed with cold PBS (Invitrogen), and were immediately lysed by freeze/thawing 3× in 32 μL of cold Cell Extraction Buffer (Invitrogen), which was supplemented with Complete Protease inhibitors (Roche) and PhosphoSTOP (Roche) phosphatase inhibitors.
MSD plates (Meso Scale Discovery) were coated with total FGFR-4 antibodies overnight at 4° C. A lysate (25 μL) was added to the MSD plate overnight at 4° C. The MSD signals were obtained by incubating with a phospho-FGFR antibody (R&D Systems) and an anti-rabbit sulfo-tag antibody (Meso Scale), for 2 hr at room temperature. […] The data was fitted using a sigmoidal curve analysis program (Graph Pad Prism version 5) with variable Hill slope to determine the EC50 values.

[1] = method a: [FGFR4-WT]=10 nM (Invitrogen), [ATP]=300 uM, [Y10-Sox]=10 uM
[2] = method b: [FGFR4-WT]=2.5 nM (SignalChem), [ATP]=250 uM, [Y10-Sox]=10 uM

Sequence of FGFR4-WT (P22455 22-802): as above

SMILES | IC50 (FGFR4-WT; [1]) [nM] | EC50 (pFGFR4 in Huh7 cells) [nM] | IC50 (FGFR4-WT) [nM] | IC50 (FGFR4-WT; [2]) [nM]
C=CC(=O)NC1COCC1Nc1ncc2c(n1)N(C)C(=O)N(c1cc(C(=O)Nc3cccc(C(C)(C)C)c3)ccc1Cl)C2 (stereo not shown) [Compound I-247] | 101 to 500 | < 100 |  | 
C=CC(=O)Nc1ccccc1Nc1ncc2c(n1)N(C)C(=O)N(c1c(Cl)cccc1Cl)C2 [Compound I-83] | 101 to 500 | 101 to 500 |  | 
C=CC(=O)N[C@H]1CCCC[C@H]1Nc1ncc2c(n1)N(C)C(=O)N(c1c(Cl)c(OC)c(OC)c(OC)c1Cl)C2 [Compound I-221] |  | > 1000 |  | 
C=CC(=O)NC1COCC1Nc1ncc2c(n1)N(Cc1cc[nH]n1)C(=O)N(c1c(Cl)c(OC)cc(OC)c1Cl)C2 (stereo not shown) [Compound I-216] | < 100 | 101 to 500 |  | 
C=CC(=O)NC1CCCCC1Nc1ncc2c(n1)N(CCF)C(=O)N(c1c(Cl)c(OC)cc(OC)c1Cl)C2 (racemic) [Compound I-106] |  | 101 to 500 |  | 
C=CC(=O)Nc1cc(N2CCN(CCOC)CC2)ccc1Nc1ncc2c(n1)N(Cc1cccc(NC(=O)CC)c1)C(=O)N(c1cc(OC)cc(OC)c1)C2 [Compound I-9] |  | 101 to 500 |  | 
C=CC(=O)Nc1cc(OC)ccc1Nc1ncc2cc(-c3c(Cl)c(OC)cc(OC)c3Cl)c(=O)n(C)c2n1 [Compound I-242] |  | < 100 |  | 
C=CC(=O)Nc1cc(-c2nnn(C)n2)ccc1Nc1ncc2c(n1)N(C)C(=O)N(c1cc(OC)cc(OC)c1)C2 [Compound I-146] | < 100 | 101 to 500 |  | 
C=CC(=O)NC1COCC1Nc1ncc2c(n1)N(C)C(=O)N(c1c(Cl)c(OCC)cc(OCC)c1Cl)C2 (stereo not shown) [Compound I-205] | 101 to 500 | 101 to 500 |  | 
C=CC(=O)Nc1cc(C)ccc1Nc1ncc2cc(-c3c(Cl)c(OC)cc(OC)c3Cl)c(=O)n(C)c2n1 [Compound I-243] | < 100 | < 100 |  | 
C=CC(=O)NC1CCCCC1Nc1ncc2c(n1)N(Cc1ccn(C)c(=O)c1)C(=O)N(c1c(Cl)c(OC)cc(OC)c1Cl)C2 (stereo not shown) [Compound I-132] | < 100 | 101 to 500 |  | 
C=CC(=O)Nc1cc(N2CCN(C(=O)CCCC(=O)NCCCOCCOCCOCCCNC(=O)CCCC[C@@H]3SC[C@@H]4NC(=O)N[C@@H]43)CC2)ccc1Nc1ncc2c(n1)N(C)C(=O)N(c1c(Cl)c(OC)cc(OC)c1Cl)C2 [Compound I-127] |  | 101 to 500 | < 100 | 
C=CC(=O)Nc1ccccc1Nc1ncc2c(n1)N(Cc1ccnc(N)c1)C(=O)N(c1cc(OC)cc(OC)c1)C2 [Compound I-87] | < 100 | < 100 |  | 
C=CC(=O)Nc1ccccc1Nc1ncc2c(n1)N(C)C(=O)N(c1c(F)c(OC)cc(OC)c1F)C2 [Compound I-131] | < 100 | < 100 |  | 
C=CC(=O)N[C@@H]1COC[C@@H]1Nc1ncc2c(n1)N(C)C(=O)N(c1c(Cl)c(OC)cc(OC)c1Cl)C2 [Compound I-185] | > 1000 | > 1000 |  | 
C=CC(=O)NC1COCC1Nc1ncc2c(n1)N(CC1CC1)C(=O)N(c1c(Cl)c(OC)cc(OC)c1Cl)C2 (stereo not shown) [Compound I-212] |  | < 100 |  | 
C=CC(=O)Nc1cc(C(=O)NC2CCN(C)CC2)ccc1Nc1ncc2c(n1)N(C)C(=O)N(c1cc(OC)cc(OC)c1)C2 [Compound I-151] | < 100 | > 1000 |  | 
C=CC(=O)N[C@H]1COC[C@H]1Nc1ncc2c(n1)N(C)C(=O)N(c1c(Cl)c(OC)cc(OC)c1Cl)C2 [Compound I-186] | < 100 | < 100 |  | 
C=CC(=O)Nc1ccccc1Nc1ncc2c(n1)N(CC(F)F)C(=O)N(c1cc(OC)cc(OC)c1)C2 [Compound I-99] | < 100 | 101 to 500 |  | 
C=CC(=O)NC1CCCCC1Nc1ncc2c(n1)N(Cc1ccnc(N)c1)C(=O)N(c1c(Cl)c(OC)cc(OC)c1Cl)C2 (stereo not shown) [Compound I-133] | < 100 | < 100 |  | 
C=CC(=O)Nc1ccccc1Nc1ncc2c(n1)N(CC(F)F)C(=O)N(c1c(F)c(OC)cc(OC)c1F)C2 [Compound I-116] | < 100 | < 100 |  | 
C=CC(=O)Nc1cc(F)ccc1Nc1ncc2cc(-c3c(Cl)c(OC)cc(OC)c3Cl)c(=O)n(C)c2n1 [Compound I-245] | < 100 | < 100 |  | 
C=CC(=O)NC1CN(c2ccncn2)CC1Nc1ncc2c(n1)N(C)C(=O)N(c1c(Cl)c(OC)cc(OC)c1Cl)C2 (stereo not shown) [Compound I-201] | < 100 | 101 to 500 |  | 
C=CC(=O)NC1COCC1Nc1ncc2c(n1)N(Cc1cn[nH]c1)C(=O)N(c1c(Cl)c(OC)cc(OC)c1Cl)C2 (stereo not shown) [Compound I-214] |  | 101 to 500 |  | 
C=CC(=O)Nc1ccccc1Nc1ncc2c(n1)N(CC(O)CO)C(=O)N(c1cc(OC)cc(OC)c1)C2 (stereo not shown) [Compound I-33] |  | > 1000 |  | 
C=CC(=O)N[C@H]1CCCC[C@H]1Nc1ncc2c(n1)N(C)C(=O)N(c1c(F)c(OC)cc(OC)c1Br)C2 [Compound I-228] | 101 to 500 | 101 to 500 |  | 
C=CC(=O)N[C@H]1CCCC[C@H]1Nc1ncc2c(n1)N(C)C(=O)N(c1c(Cl)c(OCC)cc(OCC)c1Cl)C2 [Compound I-219] | 101 to 500 | 501 to 999 |  | 

SMILES | IC50 (FGFR4-WT; [1]) [nM] | EC50 (pFGFR4 in Huh7 cells) [nM] | IC50 (FGFR4-WT) [nM] | IC50 (FGFR4-WT; [2]) [nM]
C=CC(=O)Nc1ccccc1Nc1ncc2c(n1)N(Cc1cccc(C(N)=O)c1)C(=O)N(c1cc(OC)cc(OC)c1)C2 [Compound I-97] | < 100 | 101 to 500 |  | 
C=CC(=O)Nc1ccccc1Nc1ncc2c(n1)N(Cc1cscn1)C(=O)N(c1cc(OC)cc(OC)c1)C2 [Compound I-64] | < 100 | 101 to 500 |  | 
C=CC(=O)Nc1ccccc1Nc1ncc2c(n1)N(C1CCCNC1)C(=O)N(c1cc(OC)cc(OC)c1)C2 (stereo not shown) [Compound I-43] | < 100 | > 1000 |  | 
C=CC(=O)Nc1ccccc1Nc1ncc2c(n1)N(C)C(=O)N(c1cc(OC)cc(OC)c1)C2 [Compound I-5] | < 100 | 101 to 500 |  | 
C=CC(=O)Nc1ccccc1Nc1ncc2c(n1)N(CCF)C(=O)N(c1cc(OC)cc(OC)c1)C2 [Compound I-102] | < 100 | < 100 |  | 
C=CC(=O)N[C@H]1CCCC[C@H]1Nc1ncc2c(n1)N(Cc1cscn1)C(=O)N(c1c(Cl)c(OC)cc(OC)c1Cl)C2 [Compound I-114] |  | 101 to 500 |  | 
C=CC(=O)Nc1cc(C(F)(F)F)ccc1Nc1ncc2c(n1)N(C)C(=O)N(c1cc(OC)cc(OC)c1)C2 [Compound I-42] | < 100 | < 100 |  | 
C=CC(=O)NC1CN(C(C)=O)CC1Nc1ncc2c(n1)N(C)C(=O)N(c1c(Cl)c(OC)cc(OC)c1Cl)C2 (racemic) [Compound I-139] |  | 101 to 500 |  | 
COc1cc(OC)c(Cl)c(N2Cc3cnc(Nc4ccccc4)nc3N(C)C2=O)c1Cl [Compound I-238] |  | < 100 |  | 
C=CC(=O)NC1COCC1Nc1ncc2c(n1)N(Cc1cscn1)C(=O)N(c1c(Cl)c(OC)cc(OC)c1Cl)C2 (stereo not shown) [Compound I-210] |  | < 100 |  | 
C=CC(=O)Nc1ccccc1Nc1ncc2cc(-c3cc(OC)cc(OC)c3)c(N)nc2n1 [Compound I-155] |  | > 1000 |  | 
C=CC(=O)Nc1cc(C2CCN(CC)CC2)ccc1Nc1ncc2c(n1)N(C)C(=O)N(c1cc(OC)cc(OC)c1)C2 [Compound I-54] | < 100 |  |  | 
C=CC(=O)Nc1ccccc1Nc1ncc2c(n1)N(C)C(=O)N(c1cc(OC)cc(OC)c1Cl)C2 [Compound I-75] | < 100 |  |  | 
C=CC(=O)Nc1ccc(-c2cnn(C)c2)cc1Nc1ncc2c(n1)N(C)C(=O)N(c1c(Cl)c(OC)cc(OC)c1Cl)C2 [Compound I-74] | < 100 |  |  | 
C=CC(=O)NC1CCCCC1Nc1ncc2c(n1)NC(=O)N(c1c(Cl)c(OC)cc(OC)c1Cl)C2 (racemic) [Compound I-73] | 101 to 500 |  |  | 
C=CC(=O)Nc1cc(C(F)(F)F)ccc1Nc1ncc2c(n1)N(Cc1ccccc1)C(=O)N(c1c(Cl)c(OC)cc(OC)c1Cl)C2 [Compound I-10] |  |  |  | > 1000
C=CC(=O)NC1CN(C)CC1Nc1ncc2c(n1)N(C)C(=O)N(c1c(Cl)c(OC)cc(OC)c1Cl)C2 (racemic) [Compound I-138] |  | 101 to 500 |  | 
C=CC(=O)N[C@H]1CCCC[C@H]1Nc1ncc2c(n1)N(Cc1ccccc1)C(=O)N(c1c(Cl)c(OC)cc(OC)c1Cl)C2 [Compound I-82] |  |  | < 100 | 
C=CC(=O)Nc1ccc(-c2cnn(C)c2)cc1Nc1ncc2c(n1)N(C)C(=O)N(c1cc(OC)cc(OC)c1)C2 [Compound I-27] | < 100 |  |  | 
C=CC(=O)Nc1ccccc1Nc1ncc2c(n1)N(C)C(=O)N(c1c(Cl)c(OC)cc(OC)c1Cl)C2 [Compound I-2] |  |  |  | < 100
C=CC(=O)Nc1cc(-c2cnn(C)c2)ccc1Nc1ncc2c(n1)N(C)C(=O)N(c1c(Cl)c(OC)cc(OC)c1Cl)C2 [Compound I-141] | < 100 |  |  | 
C=CC(=O)Nc1cc(N2CCCCC2)ccc1Nc1ncc2c(n1)N(C)C(=O)N(c1cc(OC)cc(OC)c1)C2 [Compound I-31] | < 100 |  |  | 
C=CC(=O)Nc1cc(OCCOC)ccc1Nc1ncc2c(n1)N(Cc1ccccc1)C(=O)N(c1cc(OC)cc(OC)c1)C2 [Compound I-14] |  |  |  | < 100
C=CC(=O)Nc1ccccc1Nc1ncc2c(n1)N(C1CC1)C(=O)N(c1c(Cl)c(OC)cc(OC)c1Cl)C2 [Compound I-23] |  |  |  | < 100
C=CC(=O)Nc1cc(CN2CCN(CC)CC2)ccc1Nc1ncc2c(n1)N(C)C(=O)N(c1cc(OC)cc(OC)c1)C2 [Compound I-122] | 101 to 500 |  |  | 
C=C(C)C(=O)Nc1ccccc1Nc1ncc2c(n1)N(C)C(=O)N(c1c(Cl)c(OC)cc(OC)c1Cl)C2 [Compound I-142] | < 100 |  |  | 
